# Source: patent US20250282734A1 (Bayer Aktiengesellschaft, priority 2021, published 2025)
# Where two headings read alike, the source gives them in different places. Marks after values point to notes of the source that are not given here.
# Assays:
# [1] = Solubility free acid vs. salt, shake-flask method (Example 12); format: physicochemical
# [2] = Determination of exposure in rat after intragastric administration (Example 13); format: in vivo; settings: for AUC(0-t): female, plasma, po, read-out: AUC(0-tlast); for AUC(0-t) / AUC(0-tlast)norm / AUC(0-tlast): free acid in rat plasma
# Protocol: Determination of exposure after intragastric application of test compounds was performed in female conscious rats with a body weight of 0.2 kg (minimum) to 0.25 kg (maximum). The test compounds were applied as bolus via intragastric probe to unfed female rats in solution or suspension in the vehicle ethanol/solutol/water (v/v/v 10/40/50).
# At the indicated timepoints between 8 min and 24 h after dosing, 150 μl blood were sampled via a catheter from the vena jugularis. The samples were treated with K-EDTA as anticoagulant and stored cooled until further processing (refrigerator, 4° C.). The samples were centrifuged (15 min, 3000 rpm), then an aliquot of 100 μL was taken from the supernatant (plasma), precipitated by addition of 400 μL cold acetonitrile or methanol (abs.) and frozen at −20° C. over night. The samples were centrifuged (15 min, 3000 rpm), then 150 μL of the clear supernatant were taken for analytical testing. Analytics were performed using an Agilent 1200 HPLC-system with LCMS/MS detection.
# The applied dose of cholinate according to the invention was adjusted as compared to free acid according to the difference in molecular weight. The resulting equivalent doses were used for comparison.
# [3] = Solubility of cholinate vs free acid and other salts, shake-flask method (Example 14); format: physicochemical; settings: aqueous solvents, pH 4.5 and above, FeSSIF and FaSSIF
# Protocol: (§1) Preparation of FaSSIF (Fasted State Simulated Intestinal Fluid) blank solution: 4.2 g NaOH, 44.7 g NaH2PO4*2 H2O, and 61.86 g NaCl were dissolved in approximately 9.5 L demineralized water. Then, the pH of this solution was adjusted to 6.50+/−0.05 using HCl or NaOH, respectively. In the last step, the final volume was adjusted to 10.0 L by the addition of demineralized water.
# Preparation of the final FaSSIF solution: 4.48 g SIF (Simulated Intestinal Fluids) powder (provider: biorelevant.com, Product code: FFF01 (May 2022)) were dissolved in approximately 500 mL FaSSIF blank solution, then the final volume was adjusted to 2.0 L by the addition of FaSSIF blank solution. After 2 hours, the solution was considered to be ready to use and was used within 48 hours.
# as §1, with “FeSSIF (Fed” for “FaSSIF (Fasted”, “40.4” for “4.2”, “118.74” for “44.7”, “NaCl,” for “NaH2PO4*2 H2O,”, “82.4 mL glacial acetic acid” for “61.86 g NaCl”, “5.00+/−0.05” for “6.50+/−0.05”
# Preparation of the final FeSSIF solution: 22.4 g SIF powder (provider: biorelevant.com, Product code: FFF01 (May 2022)) were dissolved in approximately 500 mL FeSSIF blank solution, then the final volume was adjusted to 2.0 L by the addition of FeSSIF blank solution. The solution was considered to be ready to use immediately after manufacturing and was used within 48 hours.
# [4] = Hygroscopy, dynamic vapour sorption (DVS) isotherms (Example 15); format: physicochemical; settings: for Change in mass [%], Desorption / Change in mass [%], Sorption: listed as Cholinate Form A
# Protocol: Water sorption isotherms were determined using a DVS Resolution gravimetric sorption analyzer (London, UK), or a DVS Intrinsic instrument (Surface measurement Systems). The sample was dried for 1000 minutes at 0% relative humidity (R.H.). Afterwards the dry weight was recorded. […] The equilibrium criterion for each relative humidity set point was 0.002% per minute relative mass change as a function of time.
# [5] = Dissolution profile, flow through cell in FeSSIF / FaSSIF (Example 16); format: physicochemical; settings: micronized samples
# Protocol: Prior to the measurements, the samples were micronized using a jet mill (MC DECJET 30) under nitrogen, with a pressure of 4.5 Bar for the injector and 4.0 Bar grinding pressure.
# Dissolution rates of the drug substance were then determined using a flow through cell (FTC) from Sotax. All experiments were conducted in triplicates.
# Then, the respective medium (FaSSIF or FeSSIF) was pumped through the cell with a pump rate of 2 mL/min for a total time of 14 minutes, resulting in a total volume of 28 mL. This volume was collected in time increments of 2 minutes, leading to 7 collected fractions with 4 mL each. The drug substance concentration of each fraction was determined by HPLC (external standard).
# [6] = Thermodynamic stability of polymorphic form; format: physicochemical
compound,measurement,setting,value
"O=C(O)c1cc(NC(=O)C2(c3ccc(C(F)(F)F)cc3F)CC2)ccc1-c1cnn(C2CCC2)c1 [cholinate, 2-hydroxy-N,N,N-trimethylethanaminium 2-(1-cyclobutyl-1H-pyrazol-4-yl)-5-[({1-[2-fluoro-4-(trifluoromethyl)phenyl]cyclopropyl}carbonyl)amino]benzoate]",solubility,"[1]; 0.1M HCl, 25 °C, simulated gastric fluid, thermodynamic from solid, 0.1M HCl, 25° C., read-out: Solubility",< 1 µg/mL
same,solubility,"[1]; Acetone, 25° C.",412 µg/mL
same,solubility,"[1]; Acetonitrile, 25° C.",3797 µg/mL
same,solubility,"[1]; Ethanol, 25° C.",>12500 µg/mL
same,solubility,"[1]; PEG 400, 25° C.",19159 µg/mL
same,solubility,"[1]; Phosphate buffer pH 8, 25° C.",10798 µg/mL
same,solubility,"[1]; Solutol/Ethanol/Water (40/10/50 V/V/V), 25° C.",>35000 µg/mL
same,solubility,"[1]; Water, 25° C., stirred overnight",>12500** mg/L
same,solubility,"[1]; acetate buffer, 25 °C, pH 4.5, aqueous buffer, thermodynamic from solid, Acetate buffer pH 4.5, 25° C., read-out: Solubility",2 µg/mL
same,pH of the clear solution,"[1]; solubility test in water, pH of water before stirring: 5.57","**pH of the clear solution: 8.32, pH of water before stirring: 5.57"
same,AUC(0-t),"[2]; rat, 10 mg/kg, dose equiv. 10 mg/kg",60 µg·h/mL
same,AUC(0-t),"[2]; rat, 248 mg/kg, dose equiv. 248 mg/kg",745 µg·h/mL
same,AUC(0-t),"[2]; rat, 495 mg/kg, dose equiv. 495 mg/kg",1000 µg·h/mL
same,AUC(0-tlast)norm,[2]; dose equiv. 10 mg/kg,6 kg·h/L
same,AUC(0-tlast),[2]; dose equiv. 30 mg/kg,146 µg·h/mL
same,AUC(0-tlast)norm,[2]; dose equiv. 30 mg/kg,4.8 kg·h/L
same,AUC(0-tlast),[2]; dose equiv. 100 mg/kg,447 µg·h/mL
same,AUC(0-tlast)norm,[2]; dose equiv. 100 mg/kg,4.5 kg·h/L
same,AUC(0-tlast)norm,[2]; dose equiv. 248 mg/kg,3 kg·h/L
same,AUC(0-tlast)norm,[2]; dose equiv. 495 mg/kg,2 kg·h/L
same,Increase of plasma exposure of free acid with dose,"[2]; rat, doses above 30 mg/kg, listed as cholinate salt",dose-proportional increase of exposure up to a dose of approximately 100 mg/kg
same,"aqueous solubility, comparison in words",[3],higher solubility than the amorphous or partially crystalline salts
same,"Change in mass [%], Desorption",[4]; 0% Relative humidity,−0.14%
same,"Change in mass [%], Sorption",[4]; 0% Relative humidity,0.00%
same,"Change in mass [%], Desorption",[4]; 10% Relative humidity,2.50%
same,"Change in mass [%], Sorption",[4]; 10% Relative humidity,0.36%
same,"Change in mass [%], Desorption",[4]; 20% Relative humidity,3.59%
same,"Change in mass [%], Sorption",[4]; 20% Relative humidity,0.56%
same,"Change in mass [%], Desorption",[4]; 30% Relative humidity,5.08%
same,"Change in mass [%], Sorption",[4]; 30% Relative humidity,0.75%
same,"Change in mass [%], Desorption",[4]; 40% Relative humidity,6.98%
same,"Change in mass [%], Sorption",[4]; 40% Relative humidity,0.95%
same,"Change in mass [%], Desorption",[4]; 50% Relative humidity,9.30%
same,"Change in mass [%], Sorption",[4]; 50% Relative humidity,1.21%
same,"Change in mass [%], Desorption",[4]; 60% Relative humidity,12.14%
same,"Change in mass [%], Sorption",[4]; 60% Relative humidity,1.61%
same,"Change in mass [%], Desorption",[4]; 70% Relative humidity,16.02%
same,"Change in mass [%], Sorption",[4]; 70% Relative humidity,2.11%
same,"Change in mass [%], Desorption",[4]; 80% Relative humidity,21.87%
same,"Change in mass [%], Sorption",[4]; 80% Relative humidity,3.05%
same,"Change in mass [%], Desorption",[4]; 90% Relative humidity,33.33%
same,"Change in mass [%], Sorption",[4]; 90% Relative humidity,18.30%
same,"Change in mass [%], Desorption",[4]; 95% Relative humidity,46.21%
same,"Change in mass [%], Sorption",[4]; 95% Relative humidity,46.21%
same,"Hygroscopicity, comparison in words",[4]; in particular at 30-50% relative humidity,less hygroscopic than the other salts
same,DVS Dm @ 30% R.H. (Sorption),"[4]; summarized results, 30% R.H.",0.8%
same,DVS Dm @ 50% R.H. (Sorption),"[4]; summarized results, 50% R.H.",1.2%
same,DVS Dm @ 80% R.H. (Sorption),"[4]; summarized results, 80% R.H.",3.1%
same,"Dissolution profile, comparison in words",[5],better dissolution profile than the other salts
same,Thermodynamic stability of the solid form,[6],thermodynamically stable at room temperature and at least up to 35 °C
